This is an account of results in patent US20010027216A1, “Method for preventing hormone induced adverse effects” (priority 2000, published 2001).

What all share (format): cell-based, human
In experiment [1] the test system is ECC-1 endometrial cancer cells. Nature of the experiment: ECC-1 cell proliferation, [3H]thymidine incorporation into DNA. Particulars: for cell proliferation rate (cpm): concentration range 0.01 to 4 μM (FIG. 1 panel A); for effect on endometrial cancer cell growth over increasing concentrations: three days. On the procedure: Cells were cultured in DMEM containing penicillin (100 U/ml), streptomycin (0.1 mg/ml)) nystatin (12.5 (g/ml), insulin (0.6 (g/ml), and 10% FCS. Cells were stripped of endogenous steroids according to the procedure of Vignon et al. (1987, Biochem. Biophys. Res. Comm., 146:1502-8) by successive passages in medium without phenol red containing 10% and then 3% of charcoal-stripped FCS. Cells were seeded into 96 multiwell plates (5,000 cells per well) in DMEM containing 3% of charcoal-stripped FCS. After one day the medium was changed to one containing the solubilized carotenoid or THF alone. The medium was changed daily to ensure a continuous supply of carotenoid. After incubation, the number of cells and the rate of cell proliferation were estimated by the incorporation of [^3H]thymidine incorporation into cellular DNA, as described in U.S. Pat. No. 5,827,900. Cell growth was also measured by direct cell counting with a Coulter counter after trypsinization and dilution in Isotone-II (Coulter Electronics, Luton, England). A good correlation was found between the two methods. ECC-1 cells were incubated with increasing concentrations of the isoflavones genistein and daidzein, the two primary isoflavones in soy products, and with soy extract. Cell proliferation after three days was measured by [^3H]thymidine incorporation into DNA (FIG. 1, panel A). […] ECC-1 cells were also incubated with a single high concentration (40 μM) of each of genistein, daidzein and soy extract. Cell proliferation was assayed daily over the course of three days.

For experiment [2], the system named is MCF-7 mammary cancer cells. Kind of experiment: MCF-7 cell proliferation, [3H]thymidine incorporation. Particulars: for phytoestrogen-induced cell proliferation: genistein 4 μM. Here is the method:
(§1) Cells were cultured in DMEM containing penicillin (100 U/ml), streptomycin (0.1 mg/ml)) nystatin (12.5 (g/ml), insulin (0.6 (g/ml), and 10% FCS. Cells were stripped of endogenous steroids according to the procedure of Vignon et al. (1987, Biochem. Biophys. Res. Comm., 146:1502-8) by successive passages in medium without phenol red containing 10% and then 3% of charcoal-stripped FCS. Cells were seeded into 96 multiwell plates (5,000 cells per well) in DMEM containing 3% of charcoal-stripped FCS. After one day the medium was changed to one containing the solubilized carotenoid or THF alone. The medium was changed daily to ensure a continuous supply of carotenoid.
(§2) After incubation, the number of cells and the rate of cell proliferation were estimated by the incorporation of [^3H]thymidine incorporation into cellular DNA, as described in U.S. Pat. No. 5,827,900. Cell growth was also measured by direct cell counting with a Coulter counter after trypsinization and dilution in Isotone-II (Coulter Electronics, Luton, England). A good correlation was found between the two methods.
The comparative effects of estradiol and genistein supplementation on the proliferation of the hormone-dependent cell lines MCF-7 mammary cancer and ECC-1 endometrial cancer were examined (FIG. 2).
MCF-7 mammary cancer cells were stimulated by genistein (4 μM) and test cultures were additionally supplemented with lycopene or phytoene or a combination of both, at either physiological concentrations (FIG. 6, panel A) or at about one order of magnitude greater than the physiological concentrations (FIG. 6, panel B).
On the technique in general: Dividing cells build labelled thymidine or BrdU into new DNA.

Experiment [3] concerns MDA-231 mammary cancer cells. Nature of the experiment: MDA-231 cell proliferation, [3H]thymidine incorporation. Here is the method:
as §1, §2
Thus genistein not only stimulates hormone-dependent cancer cell proliferation, but IGF-I as well as other growth factors further augment this effect.

The mark [4] stands for this setting: stimulated by genistein at 1 μM (FIG. 4).
[5] abbreviates: high, non-physiological concentrations of the individual carotenoids (FIG. 6, panel B).
[6] abbreviates: lycopene 3 to 5 μM, three days in culture.
Where [7] appears, read: stimulated by estradiol at 10 nM (FIG. 4).
The mark [8] stands for this setting: lycopene 3 to 5 μM, IGF-1 30 nM.
Where [9] appears, read: 40 μM, after one day of incubation (FIG. 1, panel B).
Where [10] appears, read: 0.4 and 4 μM, after three days (FIG. 1, panel A).

Entries after “also recorded” stand apart in the source; their conditions may differ.

Take `CC(C)=CCC/C(C)=C/CC/C(C)=C/CC/C(C)=C/C=C/C=C(\C)CC/C=C(\C)CC/C=C(\C)CCC=C(C)C` [phytoene]: in experiment [1] (setting [4]), the genistein-induced cell proliferation entry was “effective inhibitors”. Further, the phytoestrogen-induced cell proliferation result in experiment [2] (setting [5]) was “effective in significantly inhibiting”.

For `CC(C)=CCC/C(C)=C/C=C/C(C)=C/C=C/C(C)=C/C=C/C=C(C)/C=C/C=C(C)/C=C/C=C(\C)CCC=C(C)C` [lycopene], the estradiol-induced cell proliferation entry is recorded as “all lycopene concentrations tested were effective in inhibiting” in experiment [1] (estradiol 10 nM, various concentrations of lycopene, lowest 0.9 μM (FIG. 5)) and “effectively inhibited” in experiment [1] (setting [7]). For the same molecule, the genistein-induced cell proliferation result is “all lycopene concentrations tested were effective in inhibiting” in experiment [1] (genistein 1 μM, various concentrations of lycopene, lowest 0.9 μM (FIG. 5)) and “effective inhibitors; also recorded: effectively inhibited” in experiment [1] (setting [4]). For the same molecule, the basal growth result in experiment [1] (setting [6]) and in experiment [2] (setting [6]) was “significantly inhibited” each time. The “estrogen-induced (either genistein or estradiol) growth” value in experiment [1] (setting [6]) and in experiment [2] (setting [6]) was “substantially inhibited; also recorded: significantly inhibited” throughout. Moreover, the phytoestrogen-induced cell proliferation entry in experiment [2] (setting [5]) is on record as “effective in significantly inhibiting”; in experiment [2] (low (physiological) concentration: lycopene 0.4 μM, mixture of phytoene and phytofluene 6 μM (FIG. 6, panel A)), “do not significantly affect”. The “IGF stimulation of cell growth” value in experiment [2] (setting [8]) and in experiment [3] (setting [8]) was “inhibits IGF stimulation” each time. Also, the “cell proliferation compared with controls” value in experiment [3] (setting [8]) is given as “reduced to levels less than that of controls”.

Turning to `O=c1c(-c2ccc(O)cc2)coc2cc(O)cc(O)c12` [genistein, reference compound], the cell proliferation entry is listed as “significantly increases cell proliferation; also recorded: stimulated cell proliferation” in experiment [1] (setting [9]); “inhibitory effects” in experiment [1] (40 μM, second day in culture (FIG. 1, panel B)); “stimulated cell proliferation” in experiment [1] (setting [10]); “inhibited cell proliferation” in experiment [1] (higher, non-physiological concentrations (10 μM), after three days in culture (FIG. 1, panel A)). The “cell proliferation rate (cpm)” value in experiment [1] is “significant increase in cell proliferation rate”. Moreover, the “effect on endometrial cancer cell growth over increasing concentrations” value in experiment [1] is “biphasic effects on proliferation, stimulating at low concentrations and inhibiting at high concentrations”. Moreover, the “effect on proliferation over increasing concentrations” value in experiment [2] (increasing concentrations (FIG. 2, panel A)) was “biphasic effects on proliferation, stimulating at low concentrations and inhibiting at high concentrations”. In addition, in experiment [2] (with IGF-1 30 nM (FIG. 3, panel A)), the “stimulatory effect of genistein in the presence of IGF-I” value is “further augmented”. Also, in experiment [3] (FIG. 3, panel B), the “stimulation of cell growth by genistein” value is listed as “not by genistein”.

For `O=c1c(-c2ccc(O)cc2)coc2cc(O)ccc12` [daidzein, reference compound], the cell proliferation result in experiment [1] (setting [9]) is given as “significantly increases cell proliferation; also recorded: stimulated cell proliferation”. Further, in experiment [1] (setting [10]), the cell proliferation entry is “stimulated cell proliferation”. In experiment [1], the “cell proliferation rate (cpm)” value was “significant increase in cell proliferation rate” and the “effect on endometrial cancer cell growth over increasing concentrations” value is “only stimulatory”.

With “IGF-1: Human recombinant IGF-1 purchased from GroPep”, the cell growth entry in experiment [2] (IGF-1 30 nM (FIG. 3, panel A)) is recorded as “significantly stimulates cell growth”; in experiment [3] (IGF-1 30 nM (FIG. 3, panel B)), “significantly stimulates cell growth”.

As to `CC1=C(/C=C/C(C)=C/C=C/C(C)=C/C=C/C=C(C)/C=C/C=C(C)/C=C/C2=C(C)CCCC2(C)C)C(C)(C)CCC1` [beta-carotene], in experiment [1] (setting [7]), the estradiol-induced cell proliferation result was “effectively inhibited”. In experiment [1] (setting [4]), the genistein-induced cell proliferation result is “effective inhibitors; also recorded: effectively inhibited”.

Consider `CC1=C(/C=C/C(C)=C/C=C/C(C)=C/C=C/C=C(C)/C=C/C=C(C)/C=C/C2=C(C)C(=O)[C@@H](O)CC2(C)C)C(C)(C)C[C@H](O)C1=O` [astaxanthin], for which the estradiol-induced cell proliferation result in experiment [1] (setting [7]) is given as “effectively inhibited”. Moreover, the genistein-induced cell proliferation entry in experiment [1] (setting [4]) is on record as “effective inhibitors; also recorded: effectively inhibited”.
